Experimental data from the supplement of paper PMC9549728.
Where a name gives a salt, the structure may show the parent alone.

How the values were obtained:
Experiment in all cases: IC50 (viability, PrestoBlue) (log10 nM)
Conditions in all cases: exposure time: 72 h
[1] = tested on: murine gastric organoid WNT-activated (Apc fl/fl; Tp53 R172H)
Outline: (§1)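 Murine gastric corpus organoids, either uninduced or Cre-induced (RAS-activated, WNT-activated or diffuse), were broken up mechanically and seeded in 15 μl Matrigel beneath 45 μl medium in 384-well plates pre-spotted with DMSO-diluted compounds at nine final concentrations spanning 6.7 to 25,004 nM. After 72 h of incubation, PrestoBlue was added at 1× final for 3 h at 37°C and fluorescence was read at 560/590 nm. Half-maximal inhibitory concentrations were fitted by non-linear regression in Prism. Values are expressed in log10 nM as the mean of three passages × two wells.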

[2] = tested on: murine gastric organoid diffuse (Cdh1 fl/fl; Apc fl/fl)
Outline: as §1

[3] = tested on: murine normal gastric organoid
Outline: as §1

[4] = tested on: murine gastric organoid RAS-activated (Kras G12D; Tp53 R172H)
Outline: as §1

Compound	IC50 (log10 nM) [1]	IC50 (log10 nM) [2]	IC50 (log10 nM) [3]	IC50 (log10 nM) [4]
CC[C@]12C=CCN3CC[C@@]4(c5cc([C@@]6(C(=O)OC)C[C@@H]7C[C@@H](C(C)(F)F)CN(Cc8c6[nH]c6ccccc86)C7)c(OC)cc5N(C)[C@H]4[C@@](O)(C(=O)OC)[C@@H]1OC(C)=O)[C@@H]32 [Vinflunine tartrate]	1.63	2.23	2.09	2.32
CC[C@@H]1C(=O)N(C)c2cnc(Nc3ccc(C(=O)N[C@H]4CC[C@H](N5CCN(CC6CC6)CC5)CC4)cc3OC)nc2N1C(C)C [Volasertib]	2.19	2.29	1.98	2.09
O=C(CCCCCCC(=O)Nc1ccccc1)NO [Vorinostat]	3.67	3.65	3.62	3.28
C[C@H](NC(=O)/C(C#N)=C/c1cccc(Br)n1)c1ccccc1 [WP1066]	3.26	3.52	3.47	3.49
O[C@@H](COc1cccc2ncccc12)CN1CCN([C@@H]2c3ccccc3[C@@H]3[C@H](c4ccccc42)C3(F)F)CC1 [Zosuquidar trihydrochloride]	4.03	4.02	3.88	4.07
COC(=O)[C@]12CCC(C)(C)C[C@H]1[C@H]1C(=O)C=C3[C@@]4(C)C=C(C#N)C(=O)C(C)(C)[C@@H]4CC[C@@]3(C)[C@]1(C)CC2 [bardoxolone methyl]	2.92	3.24	2.61	2.38
O=c1[nH]cc(F)c(=O)[nH]1 [fluorouracil]	4.09	3.28	3.4	3.32
NC(=O)N1CCC(CC(=O)N2CCC([C@H]3c4ncc(Br)cc4CCc4cc(Cl)cc(Br)c43)CC2)CC1 [lonafarnib]	3.47	4.3	3.33	3.03
